According to US10376555B2, “Identification of cyclic peptide agonists of galanin receptor 2 and 3 guided by spexin solution structure” (Hong Kong Baptist University, priority 2017, dated 2019):
“Also recorded” adds a separate entry of the source. Positions of bridges follow the written chain, without caps; N, C: chain ends. Residues, ends and D or L forms follow the SMILES beside them.

Experiments:
[1] = test system: C57BL/6J mice with high-fat-diet (HFD) induced obesity; experiment: Body weight gain in high-fat-diet induced obesity mice, LH101 (Ac) vs hSPX, 18 day treatment; format: in vivo; conditions: for food intake: recorded every 3 days
Protocol: Female and male C57BL/6J mice weighing 22-25 g were purchased from the Laboratory Animal Services Center, The Chinese University of Hong Kong, Hong Kong. The animals were fed with rodent diet with 60 kcal % fat (Research Diets, New Brunswick, N.J.) ad libitum with free access to water and were housed in rooms maintained at 22±1° C. with a 12 h light/dark cycle (lights on 6:00-18:00). Animals were constantly acclimated to the facility until the body weight reached no less than 30 g. Then all the diet-induced obese mice were divided into 3 groups randomly for the drug treatment. Mice body weight was daily monitored, and the food intake amount was recorded every 3 days. The Animal Ethics Committee of Hong Kong Baptist University approved all experimental protocols in accordance with “Institutional Guidelines and Animal Ordinance” from Department of Health, Hong Kong Special Administrative Region.

hGalR1 = molecular target: T1, hGalR1 (Homo sapiens, UniProt P47211); experiment: SRE-Luc receptor activation assay, hGalR1; format: cell-based; conditions: for hGalR1 EC50: HEK293 cells transfected with hGalR1, Gqi, SRE-Luc, 6 h treatment, full-dose; for hGalR1 Emax: Relative to hGAL Emax
T1 sequence (P47211 1-349): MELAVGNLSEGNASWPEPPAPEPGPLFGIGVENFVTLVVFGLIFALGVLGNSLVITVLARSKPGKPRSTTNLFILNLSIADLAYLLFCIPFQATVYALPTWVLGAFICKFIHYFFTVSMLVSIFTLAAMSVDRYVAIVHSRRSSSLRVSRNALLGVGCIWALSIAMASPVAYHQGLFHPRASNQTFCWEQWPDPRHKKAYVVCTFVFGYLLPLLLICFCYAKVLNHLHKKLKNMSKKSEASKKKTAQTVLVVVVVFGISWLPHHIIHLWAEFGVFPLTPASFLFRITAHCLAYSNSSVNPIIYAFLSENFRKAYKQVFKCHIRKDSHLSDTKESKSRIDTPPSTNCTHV

hGalR3 = molecular target: T2, hGalR3 (Homo sapiens, UniProt O60755); experiment: SRE-Luc receptor activation assay, hGalR3; format: cell-based; conditions: for EC50: HEK293 cells transfected with hGalR3, Gqi, SRE-Luc, 6 h treatment, full-dose, read-out: hGalR3 EC50; for hGalR3 Emax: Relative to hSPX Emax
T2 construct: host or cells: HEK293
T2 sequence (O60755 1-368): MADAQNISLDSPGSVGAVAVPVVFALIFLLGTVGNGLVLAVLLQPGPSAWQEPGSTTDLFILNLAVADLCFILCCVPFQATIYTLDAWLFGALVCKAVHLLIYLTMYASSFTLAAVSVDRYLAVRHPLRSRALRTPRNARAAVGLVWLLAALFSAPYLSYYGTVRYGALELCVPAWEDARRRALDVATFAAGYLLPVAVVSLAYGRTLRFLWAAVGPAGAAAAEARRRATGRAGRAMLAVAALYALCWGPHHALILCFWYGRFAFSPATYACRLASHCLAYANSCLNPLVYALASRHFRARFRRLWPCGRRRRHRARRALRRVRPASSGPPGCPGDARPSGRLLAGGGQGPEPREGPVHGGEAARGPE

[2] = In vitro serum stability assay (RP-HPLC); format: in vitro ADME, rat; conditions: rat
Protocol: The serum stability of CSAs was tested using an in vitro assay followed by reverse-phase high-performance liquid chromatography (RP-HPLC) analysis (FIGS. 33-38).
750 μL RPMI medium 1640 (Thermo Fisher Scientific) was mixed with […] rat serum, and incubated at 37° C. for 15 min before adding peptide. The peptide dissolved in water was added into the reaction buffer to make a final concentration of 100 μg/mL. At each time point (5, 15, 30, 60, 120, 240, and 480 min), 100 μL reaction solution were taken, and mixed with 200 μL 6% trichloroacetic acid (TCA, Sigma-Aldrich). The resulting cloudy solution was cooled at 4° C. for 15 min, and centrifuged for 10 mins at 13,000 rpm. The supernatant was then analyzed by RP-HPLC. The extent of intact peptide was calculated based on the peak area and was normalized using a control sample.

hGalR2 = molecular target: T3, hGalR2 (Homo sapiens, UniProt O43603); experiment: SRE-Luc receptor activation assay, hGalR2; format: cell-based; conditions: for EC50: HEK293 cells transfected with hGalR2, Gqi, SRE-Luc, 6 h treatment, full-dose, read-out: hGalR2 EC50; for hGalR2 Emax: Relative to hSPX Emax
T3 construct: host or cells: HEK293
T3 sequence (O43603 1-387): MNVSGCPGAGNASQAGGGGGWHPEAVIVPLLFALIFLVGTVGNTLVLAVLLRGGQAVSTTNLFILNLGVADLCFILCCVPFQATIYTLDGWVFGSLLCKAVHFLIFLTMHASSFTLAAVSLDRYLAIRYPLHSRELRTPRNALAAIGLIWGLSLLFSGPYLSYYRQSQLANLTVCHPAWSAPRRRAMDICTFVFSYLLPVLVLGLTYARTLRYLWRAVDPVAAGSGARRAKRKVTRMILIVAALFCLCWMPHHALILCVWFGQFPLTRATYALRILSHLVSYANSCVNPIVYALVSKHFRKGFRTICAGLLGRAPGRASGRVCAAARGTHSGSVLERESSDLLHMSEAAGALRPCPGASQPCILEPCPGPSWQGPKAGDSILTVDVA

[3] = test system: male mice (C57BL/6J) with diet-induced obesity (DIO); experiment: Body weight gain in diet-induced obesity mice, LH101, 14-days-treatment; format: in vivo; conditions: 25 μg/kg i.p., vs PBS controls
Protocol: Male mice (C57BL/6J) weighing about 22-25 g were purchased from the Laboratory Animal Services Center, The Chinese University of Hong Kong, Hong Kong. The animals were fed with a high fat diet (Research Diets, New Brunswick, N.J.) ad libitum with free access to water and were housed in rooms maintained at 22±1° C. with a 12 h light/dark cycle (lights on 6:00-18:00). Animals were constantly acclimated to the facility until the body weight reached 45-50 g. Then all the diet induced obese mice were divided into 2 groups randomly for the drug treatment. The Animal Ethics Committees of Hong Kong Baptist University, approved all experimental protocols, in accordance with “Institutional Guidelines and Animal Ordinance” from Department of Health, Hong Kong Special Administrative Region.

SMILES	body weight gain ([1]; 25 μg/kg i.p., 18 day treatment, vs PBS controls)	area-under-curve (AUC) of body weight gain curve ([1]; 18 day treatment)	time after which weight gain started to wane ([1]; 18 day treatment) [days]	food intake [1]	hGalR1 EC50 (hGalR1)	hGalR1 Emax (hGalR1)	EC50 (hGalR3) [nM]	hGalR3 Emax (hGalR3)	fold enhancement of half-life [2] [fold]	half-life at 100 μg/mL ([2]; serum, half-life time in serum) [h]	half-life at 100 μg/mL ([2]; serum, serum half-life (t1/2)) [h]	EC50 (hGalR2) [nM]	hGalR2 Emax (hGalR2)	body weight gain [3]	remaining at 8 h, 100 μg/mL ([2]; serum) [%]
CSCC[C@@H]1NC(=O)[C@H](C)NC(=O)[C@H](CCC(N)=O)NC(=O)[C@@H]2CCCN2C(=O)[C@H]([C@@H](C)O)NC(=O)[C@H](Cc2c[nH]c3ccccc23)NC(=O)[C@@H](NC(C)=O)CSSC[C@@H](C(=O)N[C@@H](CCC(N)=O)C(N)=O)NC(=O)CNC(=O)[C@H](CCCCN)NC(=O)[C@H](CC(C)C)NC(=O)[C@H](Cc2ccc(O)cc2)NC(=O)[C@H](CC(C)C)NC1=O [LH101 (Ac)] (Ac-CWTPQAMLYLKGCQ-NH2; disulfide 1-13)	significantly suppressed the body weight gain	significant body weight control efficacy	8	inhibitory effects on food consumption	N.M.	N.M.	390	1.00	29.1	> 24	32.9	380	0.97	–	–
CSCC[C@@H]1NC(=O)[C@H](C)NC(=O)[C@H](CCC(N)=O)NC(=O)[C@@H]2CCCN2C(=O)[C@H]([C@@H](C)O)NC(=O)[C@H](Cc2c[nH]c3ccccc23)NC(=O)[C@@H](N)CSSC[C@@H](C(=O)N[C@@H](CCC(N)=O)C(N)=O)NC(=O)CNC(=O)[C@H](CCCCN)NC(=O)[C@H](CC(C)C)NC(=O)[C@H](Cc2ccc(O)cc2)NC(=O)[C@H](CC(C)C)NC1=O [LH101] (H-CWTPQAMLYLKGCQ-NH2; disulfide 1-13)	–	–	–	–	N.M.	N.M.	1560	1.04	5.3	–	5.93	1190	1.09	significantly suppressed the body weight gain; also recorded: suppressed mice body weight gain; also recorded: does inhibit body weight gain	46
CSCC[C@H](NC(=O)[C@H](C)NC(=O)[C@H](CCC(N)=O)NC(=O)[C@@H]1CCCN1C(=O)[C@@H](NC(=O)[C@H](Cc1c[nH]c2ccccc12)NC(=O)[C@@H](N)CC(N)=O)[C@@H](C)O)C(=O)N[C@@H](CC(C)C)C(=O)N[C@@H](Cc1ccc(O)cc1)C(=O)N[C@@H](CC(C)C)C(=O)N[C@@H](CCCCN)C(=O)NCC(=O)N[C@@H](C)C(=O)N[C@@H](CCC(N)=O)C(N)=O [hSPX, reference compound]	–	significant body weight control efficacy	10	inhibitory effects on food consumption	N.M.	N.M.	–	1.00	–	–	1.11	–	1.00	–	–
